Measurements published in the NIST ThermoML archive (doi:10.1016/j.jct.2004.12.006).
Numbers after ± are expanded uncertainties.

Assays:
[1] = Molar enthalpy of transition or fusion; settings: Crystal; DSC
[2] = Crystal; DTA

Molar enthalpy of transition or fusion [1]: 8.12 ± 0.167 kcal/mol
Normal melting temperature [2]: 126.7 ± 0.7 °C
Structure (SMILES): Cl.Cl.Fc1ccc([C@@H]2CCNC[C@H]2COc2ccc3c(c2)OCO3)cc1.Fc1ccc([C@@H]2CCNC[C@H]2COc2ccc3c(c2)OCO3)cc1.O [paroxetine hydrochloride hemihydrate]
